Data reported in patent US6436977B1, “Dosing regimens for lasofoxifene” (Pfizer Inc., priority 1999, dated 2002).
Read-outs that look alike come from different tables or passages of the source.

Experiment: Plasma levels of lasofoxifene after a single oral dose in healthy postmenopausal women (LC-MS-MS)
Type: in vivo, human
Settings: for concentration at 1 h: 1 hour after dosing; for concentration at 2 h: 2 hours after dosing; for concentration at 4 h: 4 hours after dosing; for concentration at 8 h: 8 hours after dosing; for concentration at 12 h: 12 hours after dosing; for concentration at 24 h: 24 hours after dosing; for concentration at 48 h: 48 hours after dosing; for concentration at 72 h: 72 hours after dosing; for concentration at 120 h: 120 hours after dosing; for concentration at 0.5 h: .5 hours after dosing
Description: A dose of 0.8 mg of lasofoxifene was administered to 12 healthy, postmenopausal women and blood samples were analyzed periodically as shown in Table 1.
A 1.0 ml sample of human plasma was analyzed for lasofoxifene according to CEDRA's Procedure TM-234 (CEDRA's address). Internal standard used for this procedure was a pentadeuterated lasofoxifene. The plasma sample containing lasofoxifene and the internal standard was extracted with MTBE. Following centrifugation, the organic layer was transferred to another tube and evaporated. An aliquot of the reconstituted sample extract was then injected onto a SCIEX API^III-PLUS LC-MS-MS instrument equipped with a short ion exchange HPLC column. Peak areas of the m/z 414→97.9 daughter ion of lasofoxifene were measured against the peak areas of the mlz 419→97.9 daughter of the internal standard. Quantitation was performed using a 1/x weighted least squares regression line generated from spiked plasma calibration samples.
The procedure of Example 1 was repeated with a dose of 10-mg lasofoxifene administered to 8 healthy postmenopausal women. Plasma levels for lasofoxifene are shown for 672 hours in Table 2.

[1] = female, human, plasma, single oral 10 mg dose, healthy post menopausal women, read-out: Mean plasma concentration, na Lasofoxifene per ml plasma
[2] = female, human, plasma, single oral dose 0.8 mg, healthy post menopausal women, read-out: Mean plasma concentration, ng Lasofoxifene per ml plasma

For Oc1ccc2c(c1)CC[C@H](c1ccccc1)[C@@H]2c1ccc(OCCN2CCCC2)cc1 [lasofoxifene, (−)-cis-6-phenyl-5-[4-(2-pyrrolidin-1-yl-ethoxy)-phenyl]-5,6,7,8-tetrahydronaphthalen-2-ol, D-tartrate], the “duration of therapeutically effective dose (level)” value (doses from 10 to 20 mg, see Table 2) was “up to 30 days”, the concentration at 168 h (female, human, plasma, oral, single dose of 0.8 mg, healthy women, after 168 hours (1 week), read-out: blood level (concentration)) was ~0.3 ng/mL and the concentration at 0 h (female, human, plasma, single oral 10 mg dose, healthy post menopausal women, 0 hours after dosing, read-out: Mean plasma concentration, na Lasofoxifene per ml plasma) was 0 ng/mL. It also gave a concentration at 1 h [1] of 4.42 ng/mL, a concentration at 2 h [1] of 5.64 ng/mL and a concentration at 4 h [1] of 8.46 ng/mL. The concentration at 8 h [1] was 10.4 ng/mL, the concentration at 12 h [1] was 10.2 ng/mL and the concentration at 24 h [1] was 8.35 ng/mL. The concentration at 48 h [1] was 7.16 ng/mL, the concentration at 72 h [1] was 5.97 ng/mL and the concentration at 120 h [1] was 4.56 ng/mL. For the same compound, the concentration at 168 h (female, human, plasma, single oral 10 mg dose, healthy post menopausal women, 168 hours after dosing, read-out: Mean plasma concentration, na Lasofoxifene per ml plasma) was 3.74 ng/mL, the concentration at 216 h (female, human, plasma, single oral 10 mg dose, healthy post menopausal women, 216 hours after dosing, read-out: Mean plasma concentration, na Lasofoxifene per ml plasma) was 2.88 ng/mL and the concentration at 264 h (female, human, plasma, single oral 10 mg dose, healthy post menopausal women, 264 hours after dosing, read-out: Mean plasma concentration, na Lasofoxifene per ml plasma) was 2.27 ng/mL. It also gave a concentration at 336 h (female, human, plasma, single oral 10 mg dose, healthy post menopausal women, 336 hours after dosing, read-out: Mean plasma concentration, na Lasofoxifene per ml plasma) of 1.6 ng/mL, a concentration at 408 h (female, human, plasma, single oral 10 mg dose, healthy post menopausal women, 408 hours after dosing, read-out: Mean plasma concentration, na Lasofoxifene per ml plasma) of 1.05 ng/mL and a concentration at 480 h (female, human, plasma, single oral 10 mg dose, healthy post menopausal women, 480 hours after dosing, read-out: Mean plasma concentration, na Lasofoxifene per ml plasma) of 0.75 ng/mL. For the same compound, the concentration at 576 h (female, human, plasma, single oral 10 mg dose, healthy post menopausal women, 576 hours after dosing, read-out: Mean plasma concentration, na Lasofoxifene per ml plasma) was 0.5 ng/mL, the concentration at 672 h (female, human, plasma, single oral 10 mg dose, healthy post menopausal women, 672 hours after dosing, read-out: Mean plasma concentration, na Lasofoxifene per ml plasma) was 0.31 ng/mL and the concentration at 0.5 h [1] was 2.33 ng/mL. The concentration at 1 h [2] was 0.32 ng/mL, the concentration at 2 h [2] was 0.37 ng/mL and the concentration at 4 h [2] was 0.46 ng/mL. It also gave a concentration at 8 h [2] of 0.72 ng/mL, a concentration at 12 h [2] of 0.73 ng/mL and a concentration at 24 h [2] of 0.64 ng/mL. The concentration at 48 h [2] was 0.56 ng/mL, the concentration at 72 h [2] was 0.49 ng/mL and the concentration at 120 h [2] was 0.4 ng/mL. For the same compound, the concentration at 168 h (female, human, plasma, single oral dose 0.8 mg, healthy post menopausal women, 168 hours after dosing, read-out: Mean plasma concentration, ng Lasofoxifene per ml plasma) was 0.34 ng/mL, the concentration at 0.5 h [2] was 0.13 ng/mL and the initial blood level (single dose of 0.8 mg, healthy women, within a few hours) was 0.7 ng/mL.
